One data set has as its system Sprague-Dawley rats. As to conditions: rat, in vivo.
Data set [1] has as its system nerve injury model of neuropathic pain. The note with it: rat, in vivo.
Data set [2] deals with mice with CFA-induced mechanical allodynia. The note with it: mouse, in vivo, sc.
For data set [3], the system named is excitatory synaptic transmission between primary afferents and dorsal horn superficial lamina neurons. It is filed as cell-based, rat.
For data set [4], the system named is native VGCCs in DRG sensory neurons. It is filed as cell-based, rat. As to conditions: for maximum inhibition of inward Ba2+ current: 0.1 µM.
A further data set concerns the target N-type VGCCs (Rattus norvegicus, UniProt Q02294). The experiment in a line: biochemical. It is filed as binding.
The subject of data set [5] is low-voltage-activated T-type VGCC in DRG neurons. It is filed as cell-based, rat.
The target in data set [6] is recombinant Cav2.3 α1E (R-type) channels (α/α2δ1/β3) (Rattus norvegicus, UniProt Q07652). It is filed as cell-based.
For data set [7], the target named is recombinant N-type (Cav2.2) VGCCs α1B-b/α2δ1/β2a (Rattus norvegicus, UniProt Q02294). It is filed as cell-based.
In data set [8] the target is recombinant N-type (Cav2.2) VGCCs α1B-b/α2δ1/β3 (Rattus norvegicus, UniProt Q02294). Put plainly: cell-based. It is filed as cell-based.
For data set [9], the target named is recombinant Cav1.3 α1D (L-type) channels (α/α2δ1/β3) (Rattus norvegicus, UniProt P27732). It is filed as cell-based.
In data set [10] the target is recombinant Cav2.1 α1A (P/Q-type) channels (α/α2δ1/β3) (Oryctolagus cuniculus, UniProt P27884). The experiment in a line: cell-based. On the set-up: species or system rabbit.
Data set [11] concerns the target recombinant Cav1.2 α1C (L-type) channels (α/α2δ1/β3) (Oryctolagus cuniculus, UniProt P15381). It is filed as cell-based, rabbit.

“Also recorded” adds a separate entry of the source. Where a SMILES comes first, the peptide text is derived from it.

As usually defined, the IC50 is the concentration that gives 50% inhibition. Low values mean greater potency, high ones weaker potency. Usually Hill slope stands for a measure of the steepness of the concentration-response curve.

N-type VGCCs, sequence (Q02294 whole entry, looked up): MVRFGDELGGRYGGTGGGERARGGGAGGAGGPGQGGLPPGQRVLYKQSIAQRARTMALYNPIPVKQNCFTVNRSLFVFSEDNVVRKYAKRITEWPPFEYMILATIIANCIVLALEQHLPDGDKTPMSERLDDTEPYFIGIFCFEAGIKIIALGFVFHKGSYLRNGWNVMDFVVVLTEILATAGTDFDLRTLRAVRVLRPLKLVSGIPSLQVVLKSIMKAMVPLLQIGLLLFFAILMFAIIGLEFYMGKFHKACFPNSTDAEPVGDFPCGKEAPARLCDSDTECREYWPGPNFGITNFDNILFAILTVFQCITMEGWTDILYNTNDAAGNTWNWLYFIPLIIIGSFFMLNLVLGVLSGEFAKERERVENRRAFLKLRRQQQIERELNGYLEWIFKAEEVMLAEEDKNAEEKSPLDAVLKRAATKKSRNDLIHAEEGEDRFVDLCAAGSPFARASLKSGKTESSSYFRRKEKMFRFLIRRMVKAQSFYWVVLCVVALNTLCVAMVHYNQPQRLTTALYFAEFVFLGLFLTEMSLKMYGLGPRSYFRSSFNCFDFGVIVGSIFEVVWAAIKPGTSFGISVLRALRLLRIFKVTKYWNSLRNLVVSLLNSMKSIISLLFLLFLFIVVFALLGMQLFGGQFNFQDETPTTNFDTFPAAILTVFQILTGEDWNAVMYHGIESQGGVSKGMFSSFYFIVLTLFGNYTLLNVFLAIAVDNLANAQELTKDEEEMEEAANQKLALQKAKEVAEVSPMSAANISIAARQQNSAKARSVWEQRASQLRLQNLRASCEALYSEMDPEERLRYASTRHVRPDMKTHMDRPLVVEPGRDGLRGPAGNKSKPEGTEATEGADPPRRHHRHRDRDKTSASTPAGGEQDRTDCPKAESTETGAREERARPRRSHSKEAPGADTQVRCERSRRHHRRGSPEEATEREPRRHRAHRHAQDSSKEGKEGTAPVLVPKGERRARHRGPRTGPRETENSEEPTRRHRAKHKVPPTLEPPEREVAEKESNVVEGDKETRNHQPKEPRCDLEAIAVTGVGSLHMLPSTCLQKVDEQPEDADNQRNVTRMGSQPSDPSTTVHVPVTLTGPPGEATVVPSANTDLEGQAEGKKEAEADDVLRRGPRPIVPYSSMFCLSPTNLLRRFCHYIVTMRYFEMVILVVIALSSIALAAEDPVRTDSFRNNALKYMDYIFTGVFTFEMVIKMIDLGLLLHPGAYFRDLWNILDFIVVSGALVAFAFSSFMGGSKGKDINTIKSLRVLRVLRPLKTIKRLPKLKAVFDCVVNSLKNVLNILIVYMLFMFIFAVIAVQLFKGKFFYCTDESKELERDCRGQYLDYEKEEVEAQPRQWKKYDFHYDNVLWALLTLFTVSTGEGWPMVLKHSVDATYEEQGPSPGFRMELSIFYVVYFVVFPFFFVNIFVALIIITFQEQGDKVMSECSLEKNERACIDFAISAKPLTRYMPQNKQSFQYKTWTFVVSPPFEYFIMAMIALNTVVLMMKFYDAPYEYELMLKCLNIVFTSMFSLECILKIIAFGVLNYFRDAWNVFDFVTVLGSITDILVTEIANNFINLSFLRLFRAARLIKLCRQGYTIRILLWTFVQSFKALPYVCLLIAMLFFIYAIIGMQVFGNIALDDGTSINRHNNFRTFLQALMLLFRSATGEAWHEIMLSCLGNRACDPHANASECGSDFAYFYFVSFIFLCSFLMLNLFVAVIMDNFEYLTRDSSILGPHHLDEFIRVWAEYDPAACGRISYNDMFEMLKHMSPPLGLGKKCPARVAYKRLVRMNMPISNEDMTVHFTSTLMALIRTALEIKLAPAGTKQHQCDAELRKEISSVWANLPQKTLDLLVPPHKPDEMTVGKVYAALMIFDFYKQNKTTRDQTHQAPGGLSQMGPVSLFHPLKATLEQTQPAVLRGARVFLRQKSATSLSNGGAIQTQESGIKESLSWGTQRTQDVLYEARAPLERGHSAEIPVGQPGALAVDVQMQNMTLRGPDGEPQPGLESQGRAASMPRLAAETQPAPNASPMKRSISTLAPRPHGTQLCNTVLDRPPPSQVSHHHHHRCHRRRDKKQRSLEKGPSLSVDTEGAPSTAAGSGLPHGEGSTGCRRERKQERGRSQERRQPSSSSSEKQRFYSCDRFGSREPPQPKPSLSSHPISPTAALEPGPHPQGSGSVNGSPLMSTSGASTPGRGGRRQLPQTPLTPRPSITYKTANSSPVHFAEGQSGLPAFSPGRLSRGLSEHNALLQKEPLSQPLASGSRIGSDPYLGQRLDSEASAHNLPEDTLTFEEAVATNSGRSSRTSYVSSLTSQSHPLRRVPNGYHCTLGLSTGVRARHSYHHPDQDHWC
recombinant Cav2.1 α1A (P/Q-type) channels (α/α2δ1/β3), sequence (P27884 whole entry, looked up): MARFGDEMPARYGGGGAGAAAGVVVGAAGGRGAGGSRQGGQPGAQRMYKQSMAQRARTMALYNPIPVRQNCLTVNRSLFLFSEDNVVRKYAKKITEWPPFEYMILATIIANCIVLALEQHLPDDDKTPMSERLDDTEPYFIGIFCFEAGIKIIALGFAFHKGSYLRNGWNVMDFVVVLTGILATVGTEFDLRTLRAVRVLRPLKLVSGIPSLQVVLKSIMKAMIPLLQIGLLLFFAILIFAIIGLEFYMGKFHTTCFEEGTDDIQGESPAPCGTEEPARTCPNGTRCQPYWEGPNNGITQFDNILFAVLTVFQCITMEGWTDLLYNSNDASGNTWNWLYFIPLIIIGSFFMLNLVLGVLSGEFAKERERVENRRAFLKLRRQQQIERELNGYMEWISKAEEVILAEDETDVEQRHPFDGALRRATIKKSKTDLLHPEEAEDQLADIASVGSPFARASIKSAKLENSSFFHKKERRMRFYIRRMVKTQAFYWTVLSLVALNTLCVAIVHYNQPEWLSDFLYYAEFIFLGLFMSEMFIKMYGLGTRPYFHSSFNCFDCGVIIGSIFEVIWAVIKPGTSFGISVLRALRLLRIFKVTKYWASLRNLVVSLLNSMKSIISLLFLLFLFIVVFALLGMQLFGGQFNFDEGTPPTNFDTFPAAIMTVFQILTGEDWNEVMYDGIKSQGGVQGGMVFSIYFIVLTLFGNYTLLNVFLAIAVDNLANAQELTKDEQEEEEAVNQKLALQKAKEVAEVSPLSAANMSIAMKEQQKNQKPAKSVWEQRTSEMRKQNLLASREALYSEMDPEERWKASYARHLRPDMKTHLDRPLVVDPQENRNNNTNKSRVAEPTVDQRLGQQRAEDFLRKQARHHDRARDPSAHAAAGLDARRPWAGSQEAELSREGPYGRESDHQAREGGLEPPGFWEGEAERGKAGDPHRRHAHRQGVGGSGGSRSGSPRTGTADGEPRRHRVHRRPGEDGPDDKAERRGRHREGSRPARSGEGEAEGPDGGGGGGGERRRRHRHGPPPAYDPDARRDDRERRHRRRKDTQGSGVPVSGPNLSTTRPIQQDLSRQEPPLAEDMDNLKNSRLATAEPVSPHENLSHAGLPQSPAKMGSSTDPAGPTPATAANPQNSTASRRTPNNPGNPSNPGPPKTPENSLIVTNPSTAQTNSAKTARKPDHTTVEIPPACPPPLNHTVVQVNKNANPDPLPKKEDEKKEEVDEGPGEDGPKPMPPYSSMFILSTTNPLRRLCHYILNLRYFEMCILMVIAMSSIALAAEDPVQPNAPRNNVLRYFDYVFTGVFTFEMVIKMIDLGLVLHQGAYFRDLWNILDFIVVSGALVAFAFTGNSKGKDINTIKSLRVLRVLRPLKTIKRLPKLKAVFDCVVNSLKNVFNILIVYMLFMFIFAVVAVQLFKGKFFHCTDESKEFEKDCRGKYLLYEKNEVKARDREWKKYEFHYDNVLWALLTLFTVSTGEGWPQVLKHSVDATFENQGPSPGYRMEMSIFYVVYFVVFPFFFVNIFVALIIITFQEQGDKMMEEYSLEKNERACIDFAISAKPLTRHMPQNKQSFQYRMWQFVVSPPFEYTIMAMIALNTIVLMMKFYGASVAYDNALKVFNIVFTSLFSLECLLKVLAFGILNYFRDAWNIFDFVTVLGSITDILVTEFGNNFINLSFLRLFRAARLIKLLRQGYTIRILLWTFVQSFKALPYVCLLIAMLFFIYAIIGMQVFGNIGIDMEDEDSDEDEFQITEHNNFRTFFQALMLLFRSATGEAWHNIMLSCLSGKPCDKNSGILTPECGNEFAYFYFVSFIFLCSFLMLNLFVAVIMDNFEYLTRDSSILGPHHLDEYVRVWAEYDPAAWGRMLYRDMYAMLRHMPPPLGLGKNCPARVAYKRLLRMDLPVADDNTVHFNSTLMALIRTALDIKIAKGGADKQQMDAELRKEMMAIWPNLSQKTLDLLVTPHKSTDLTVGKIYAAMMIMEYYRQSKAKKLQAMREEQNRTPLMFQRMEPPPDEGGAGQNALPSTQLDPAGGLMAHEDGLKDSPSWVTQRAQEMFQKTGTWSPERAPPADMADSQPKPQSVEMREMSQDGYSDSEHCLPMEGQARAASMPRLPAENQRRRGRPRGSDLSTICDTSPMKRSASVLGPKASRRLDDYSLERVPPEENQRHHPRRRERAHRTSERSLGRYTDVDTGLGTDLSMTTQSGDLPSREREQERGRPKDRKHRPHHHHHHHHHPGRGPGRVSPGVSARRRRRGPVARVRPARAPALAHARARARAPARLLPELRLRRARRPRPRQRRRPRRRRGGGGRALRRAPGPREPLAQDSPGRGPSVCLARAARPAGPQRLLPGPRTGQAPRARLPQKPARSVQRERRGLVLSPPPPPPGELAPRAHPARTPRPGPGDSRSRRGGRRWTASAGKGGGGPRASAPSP
recombinant N-type (Cav2.2) VGCCs α1B-b/α2δ1/β2a, sequence (Q02294 whole entry, looked up): as the sequence (Q02294 whole entry, looked up) above
recombinant N-type (Cav2.2) VGCCs α1B-b/α2δ1/β3, sequence (Q02294 whole entry, looked up): as above

As to `C[C@@H]1NC(=O)CNC(=O)[C@H](CCCCN)NC(=O)CNC(=O)[C@H](CCCCN)NC(=O)[C@@H](N)CSSC[C@@H]2NC(=O)[C@@H]3CSSC[C@@H](C(N)=O)NC(=O)[C@H](CCCNC(=N)N)NC(=O)CNC(=O)[C@H](CO)NC(=O)[C@H](CCCNC(=N)N)NC(=O)[C@H](CSSC[C@H](NC(=O)[C@H](CO)NC1=O)C(=O)N[C@@H](CCCNC(=N)N)C(=O)N[C@@H](CCCNC(=N)N)C(=O)N[C@@H]([C@@H](C)O)C(=O)N[C@@H](CO)C(=O)N[C@@H](Cc1ccc(O)cc1)C(=O)N[C@@H](CC(=O)O)C(=O)N3)NC(=O)[C@H](CO)NC(=O)CNC(=O)[C@H]([C@@H](C)O)NC2=O` [CVIE, CKGKGASCRRTSYDCCTGSCRSGRC], the “side effects (shakes, tail twitching, serpentine tail movements)” value (“side effects” for short) with Sprague-Dawley rats was “substantially decreased side effects compared to CVID”. Besides, in [1], the “relief of mechanical allodynia” value was “completely relieves mechanical allodynia; also recorded: relieved mechanical allodynia”. Besides, the reversal of incapacitance entry in data set [2] is “highly significant reversal of incapacitance; also recorded: subsided”. Further, in data set [3], the “EPSC amplitude recovered after washout” value is given as 78±7 % of control. In addition, the “reduction of evoked monosynaptic EPSC amplitude” value in data set [3] came out at 67±5%. For the same molecule, the “maximum inhibition of inward Ba2+ current” value in [4] is roughly 50%. Moreover, the “displacement of 125I-GVIA binding” value on N-type VGCCs is recorded as “fully displaced”. In addition, the IC50 is 0.037 nM on N-type VGCCs (affinity) and 0.02 nM on N-type VGCCs (pIC50).

Take `C[C@@H](O)[C@@H]1NC(=O)[C@H](Cc2ccc(O)cc2)NC(=O)[C@@H]2C[C@@H](O)CN2C(=O)[C@H](CC(N)=O)NC(=O)[C@@H]2CSSC[C@@H]3NC(=O)[C@H](CO)NC(=O)[C@H](CO)NC(=O)CNC(=O)[C@@H]4C[C@@H](O)CN4C(=O)[C@H](CO)NC(=O)[C@H](CCCCN)NC(=O)[C@@H](N)CSSC[C@H](NC(=O)[C@H](CSSC[C@@H](C(=O)N[C@@H](Cc4ccc(O)cc4)C(N)=O)NC(=O)[C@H](CCCN=C(N)N)NC(=O)[C@H](CCCCN)NC1=O)NC(=O)[C@H](CC(N)=O)NC(=O)[C@H](Cc1ccc(O)cc1)NC(=O)[C@H](CO)NC(=O)[C@H]([C@@H](C)O)NC(=O)[C@@H]1C[C@@H](O)CN1C(=O)[C@H](CO)NC3=O)C(=O)N[C@@H](CCCN=C(N)N)C(=O)N[C@@H](CO)C(=O)N2` [GVIA, reference compound]: the figures for the IC50 at N-type VGCCs (affinity) and against N-type VGCCs (pIC50) were 0.024 nM and 0.0251 nM, respectively.

Regarding `CC(C)C[C@@H]1NC(=O)[C@H](CCCNC(=N)N)NC(=O)[C@@H]2CSSC[C@@H]3NC(=O)[C@H](CO)NC(=O)[C@H](C)NC(=O)CNC(=O)[C@H](CCCCN)NC(=O)CNC(=O)[C@H](CCCCN)NC(=O)[C@@H](N)CSSC[C@H](NC(=O)[C@H](CSSC[C@@H](C(N)=O)NC(=O)[C@H](CCCNC(=N)N)NC(=O)CNC1=O)NC(=O)[C@H](CC(=O)O)NC(=O)[C@H](Cc1ccc(O)cc1)NC(=O)[C@H](CO)NC(=O)[C@H]([C@@H](C)O)NC(=O)[C@H](CCCNC(=N)N)NC(=O)[C@H](CCCNC(=N)N)NC3=O)C(=O)N[C@@H]([C@@H](C)O)C(=O)NCC(=O)N[C@@H](CO)C(=O)N2` [CVIF] (HELM PEPTIDE1{C.K.G.K.G.A.S.C.R.R.T.S.Y.D.C.C.T.G.S.C.R.L.G.R.C.[am]}$PEPTIDE1,PEPTIDE1,1:R3-16:R3|PEPTIDE1,PEPTIDE1,8:R3-20:R3|PEPTIDE1,PEPTIDE1,15:R3-25:R3$$$V2.0), the “side effects” value in the data set on Sprague-Dawley rats is on record as “substantially decreased side effects compared to CVID”. The “effect on T-type current” value in data set [5] is on record as “not affected”. Moreover, in [1], the “relief of mechanical allodynia” value is “completely relieves mechanical allodynia; also recorded: relieved mechanical allodynia”. Also, the reversal of incapacitance entry in data set [2] was “significant reversal of incapacitance; also recorded: subsided”. In data set [3], the “EPSC amplitude recovered after washout” value is 73±10 % of control and the “reduction of evoked monosynaptic EPSC amplitude” value was determined as 61±7%. In [4], the “effect on P/Q- and L-type VGCC current components” value is “does not affect”; the “maximum inhibition of inward Ba2+ current” value is reported as roughly 50%. Moreover, the “displacement of 125I-GVIA binding” value at N-type VGCCs was “fully displaced”.

In the case of `CC(C)C[C@@H]1NC(=O)[C@H](CCCNC(=N)N)NC(=O)[C@@H]2CSSC[C@@H]3NC(=O)[C@H](CO)NC(=O)[C@H](C)NC(=O)CNC(=O)[C@H](CCCCN)NC(=O)CNC(=O)[C@H](CCCCN)NC(=O)[C@@H](N)CSSC[C@H](NC(=O)[C@H](CSSC[C@@H](C(N)=O)NC(=O)[C@H](CCCNC(=N)N)NC(=O)CNC1=O)NC(=O)[C@H](CC(=O)O)NC(=O)[C@H](Cc1ccc(O)cc1)NC(=O)[C@H](CO)NC(=O)[C@H]([C@@H](C)O)NC(=O)[C@H](CCCCN)NC(=O)[C@H](CCCNC(=N)N)NC3=O)C(=O)N[C@@H]([C@@H](C)O)C(=O)NCC(=O)N[C@@H](CO)C(=O)N2` [[R10K]CVIF] (HELM PEPTIDE1{C.K.G.K.G.A.S.C.R.K.T.S.Y.D.C.C.T.G.S.C.R.L.G.R.C.[am]}$PEPTIDE1,PEPTIDE1,1:R3-16:R3|PEPTIDE1,PEPTIDE1,8:R3-20:R3|PEPTIDE1,PEPTIDE1,15:R3-25:R3$$$V2.0), the “effect on Cav2.3 channels” value in data set [6] was “neither [R10K]CVIE or [R10K]CVIF had any effect”. The “side effects” value with Sprague-Dawley rats is “substantially decreased side effects compared to CVID”. Moreover, in data set [1], the “relief of mechanical allodynia” value is “relieved mechanical allodynia”. Further, the reversal of incapacitance entry in data set [2] is listed as “highly significant reversal of incapacitance; also recorded: sustained”. Moreover, the Hill slope in data set [7] was 0.86±0.04; in data set [8] it was 0.65±0.04. The “effect on Cav1.3 channels” value in data set [9] is “neither [R10K]CVIE or [R10K]CVIF had any effect”. Further, the “effect on Cav2.1 channels” value in [10] was “neither [R10K]CVIE or [R10K]CVIF had any effect”. Besides, the “effect on Cav1.2 channels” value in [11] was “neither [R10K]CVIE or [R10K]CVIF had any effect”.

Values taken from patent US8765677B2 (priority 2009, dated 2014).
